In patent US20230295201A1 (Gilead Sciences, Inc., priority 2020, published 2023):
pEC50: −log10 of the molar value. Like-named read-outs stand apart in the source and are kept apart here.

Legend:
Assay type in all cases: cell-based
[1] = tested on: HRV16; experiment: HRV16 HELA EC50 (cytopathic effect in H1-HeLa cells)
How it was run: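 H1-HeLa cells seeded one day before, given 3-fold serial compound dilutions in triplicate just prior to infection with pre-titrated virus. Incubated 96 h at 33 °C/5% CO2; protection from cytopathic effect read as viability by CellTiter-Glo luminescence, normalised to infected untreated (0%) and uninfected (100%) controls.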

[2] = tested on: DENV2 replicon; experiment: DENV-2 Huh-7 Rep EC50 (replicon luminescence); settings: Huh-7 replicon cells, 48 hours, read-out: DENV-2 Huh-7 Rep EC50
How it was run: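 Huh-7 cells carrying a DENV2 replicon, 5,000 cells/well, were incubated with dosed compounds for 48 h at 37° C. EnduRen live-cell substrate was added 1.5 h before luminescence reading. EC50 came from dose-response against DMSO-only wells.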

[3] = tested on: RSV A2; experiment: RSV NHBE EC50 (RSV A2 antiviral assay in normal human bronchial epithelial cells); settings: NHBE cells, RSV A2, 4 days, read-out: RSV NHBE EC50
[4] = tested on: RSV strain A2; experiment: RSV HEp-2 EC50 (infectious cytopathic cell protection assay); settings: HEp-2 cells, RSV A2, 4 days, read-out: RSV HEp-2 EC50
How it was run: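 HEp-2 cells mixed with titered RSV A2 at 50,000 cells/ml were added to plates holding 3-fold serial compound dilutions in DMSO, then incubated 4 days at 37° C. Cytoprotection was read as cell viability by CellTiter-Glo luminescence and converted to percent inhibition against 0% and 100% inhibition controls.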

[5] = 96 h, H1-HeLa cells, 33° C., read-out: HRV16 HELA EC50
[6] = Dengue virus, DENV2, Huh-7, 48 h
[7] = human respiratory syncytial virus, NHBE, 96 h
[8] = human respiratory syncytial virus, HEp-2, 96 h

Compound	pEC50 [1, 5]	pEC50 [2, 6]	pEC50 [3, 7]	pEC50 [4, 8]	pEC50 [2]	pEC50 [3]	pEC50 ([1]; H1-HeLa cells, 96 h, 33° C.; read-out: HRV16 HELA EC50)	pEC50 [4]
C[C@H](NP(=O)(OC[C@@]1(C#N)O[C@@H](c2ccc3c(N)ncnn23)[C@H](O)[C@@H]1O)Oc1ccccc1)C(=O)OCC1CC1 (mixture of isomers) [Example 8, (2S)-cyclopropylmethyl 2-(((((2R,3S,4R,5S)-5-(4-aminopyrrolo[2,1-f][1,2,4]triazin-7-yl)-2-cyano-3,4-dihydroxytetrahydrofuran-2-yl)methoxy)(phenoxy)phosphoryl)amino)propanoate]	6.33	4.43	6.45	6.74	–	–	–	–
CC(C)OC(=O)[C@H](C)NP(=O)(OC[C@@]1(C#N)O[C@@H](c2ccc3c(N)ncnn23)[C@H](O)[C@@H]1O)Oc1ccccc1 (mixture of isomers) [Example 77, Isopropyl ((((2R,3S,4R,5S)-5-(4-aminopyrrolo[2,1-f][1,2,4]triazin-7-yl)-2-cyano-3,4-dihydroxytetrahydrofuran-2-yl)methoxy)(phenoxy)phosphoryl)-L-alaninate]	5.85	4.30	5.94	6.33	–	–	–	–
CCC(CC)COC(=O)[C@H](CC)NP(=O)(OC[C@@]1(C#N)O[C@@H](c2ccc3c(N)ncnn23)[C@H](O)[C@@H]1O)Oc1ccccc1 (mixture of isomers) [Example 88, (2S)-2-ethylbutyl 2-(((((2R,3S,4R,5S)-5-(4-aminopyrrolo[2,1-f][1,2,4]triazin-7-yl)-2-cyano-3,4-dihydroxytetrahydrofuran-2-yl)methoxy)(phenoxy)phosphoryl)amino)butanoate]	5.98	4.21	7.44	6.47	–	–	–	–
CC[C@H](NP(=O)(OC[C@@]1(C#N)O[C@@H](c2ccc3c(N)ncnn23)[C@H](O)[C@@H]1O)Oc1ccccc1)C(=O)OC1CCCCC1 (mixture of isomers) [Example 103, (2S)-cyclohexyl 2-(((((2R,3S,4R,5S)-5-(4-aminopyrrolo[2,1-f][1,2,4]triazin-7-yl)-2-cyano-3,4-dihydroxytetrahydrofuran-2-yl)methoxy)(phenoxy)phosphoryl)amino)butanoate]	5.61	< 4.30	6.26	6.03	–	–	–	–
CCCCCCCCCCCC(=O)OCCNP(=O)(OC[C@@]1(C#N)O[C@@H](c2ccc3c(N)ncnn23)[C@H](O)[C@@H]1O)Oc1ccccc1 (mixture of isomers) [Example 181, 2-(((((2R,3S,4R,5S)-5-(4-aminopyrrolo[2,1-f][1,2,4]triazin-7-yl)-2-cyano-3,4-dihydroxytetrahydrofuran-2-yl)methoxy)(phenoxy)phosphoryl)amino)ethyl dodecanoate]	7.46	5.28	7.37	8.10	–	–	–	–
C[C@H](N[P@](=O)(OC[C@@]1(C#N)O[C@@H](c2ccc3c(N)ncnn23)[C@H](O)[C@@H]1O)Oc1ccccc1)C(=O)OC1CCCCC1 (single isomer, unassigned) [Example 6]	6.64	5.53	6.91	7.06	–	–	–	–
C[C@H](N[P@](=O)(OC[C@@]1(C#N)O[C@@H](c2ccc3c(N)ncnn23)[C@H](O)[C@@H]1O)Oc1ccccc1)C(=O)O[C@H]1CC[C@H](C(F)(F)F)CC1 (single isomer, unassigned) [Example 18]	6.67	4.91	7.04	6.94	–	–	–	–
C[C@H](N[P@](=O)(OC[C@@]1(C#N)O[C@@H](c2ccc3c(N)ncnn23)[C@H](O)[C@@H]1O)Oc1ccccc1)C(=O)O[C@H]1CC[C@H](C(C)(C)C)CC1 (single isomer, unassigned) [Example 22]	6.70	5.24	7.44	6.99	–	–	–	–
CCC(CC)COC(=O)[C@H](C)N[P@](=O)(OC[C@@]1(C#N)O[C@@H](c2ccc3c(N)ncnn23)[C@H](O)[C@@H]1O)Oc1ccccc1 (single isomer, unassigned) [Example 25]	6.87	5.54	6.90	7.59	–	–	–	–
C[C@H](NP(=O)(OC[C@@]1(C#N)O[C@@H](c2ccc3c(N)ncnn23)[C@H](O)[C@@H]1O)Oc1ccccc1)C(=O)OCC1CCCCC1 (single isomer, unassigned) [Example 247]	6.50	–	–	7.36	4.92	6.29	–	–
C[C@H](NP(=O)(OC[C@@]1(C#N)O[C@@H](c2ccc3c(N)ncnn23)[C@H](O)[C@@H]1O)Oc1ccccc1)C(=O)OCC1CCCCC1 (single isomer, unassigned) [Example 248]	–	–	–	–	5.33	5.58	6.76	7.59
C[C@H](NP(=O)(OC[C@@]1(C#N)O[C@@H](c2ccc3c(N)ncnn23)[C@H](O)[C@@H]1O)Oc1ccccc1)C(=O)OCCC(C)(C)C (single isomer, unassigned) [Example 252]	–	–	–	7.59	5.16	7.51	–	–
C[C@H](NP(=O)(OC[C@@]1(C#N)O[C@@H](c2ccc3c(N)ncnn23)[C@H](O)[C@@H]1O)Oc1ccccc1)C(=O)OCCC(C)(C)C (single isomer, unassigned) [Example 253]	–	–	–	–	5.56	7.15	–	7.70
C[C@H](NP(=O)(OC[C@@]1(C#N)O[C@@H](c2ccc3c(N)ncnn23)[C@H](O)[C@@H]1O)Oc1ccccc1)C(=O)OC1CCCCC1 (stereo partly drawn) [Example 4, (2S)-cyclohexyl 2-(((((2R,3S,4R,5S)-5-(4-aminopyrrolo[2,1-f][1,2,4]triazin-7-yl)-2-cyano-3,4-dihydroxytetrahydrofuran-2-yl)methoxy)(phenoxy)phosphoryl)amino)propanoate]	6.29	–	7.12	7.02	–	–	–	–
C[C@H](NP(=O)(OC[C@@]1(C#N)O[C@@H](c2ccc3c(N)ncnn23)[C@H](O)[C@@H]1O)Oc1ccccc1)C(=O)OCC(C)(C)C (stereo partly drawn) [Example 92, (2S)-neopentyl 2-(((((2R,3S,4R,5S)-5-(4-aminopyrrolo[2,1-f][1,2,4]triazin-7-yl)-2-cyano-3,4-dihydroxytetrahydrofuran-2-yl)methoxy)(phenoxy)phosphoryl)amino)propanoate]	6.65	–	7.14	7.19	–	–	–	–
C[C@H](NP(=O)(OC[C@@]1(C#N)O[C@@H](c2ccc3c(N)ncnn23)[C@H](O)[C@@H]1O)Oc1ccccc1)C(=O)OCCC(C)(C)C (stereo partly drawn) [Example 251, 3,3-dimethylbutyl ((((2R,3S,4R,5S)-5-(4-aminopyrrolo[2,1-f][1,2,4]triazin-7-yl)-2-cyano-3,4-dihydroxytetrahydrofuran-2-yl)methoxy)(phenoxy)phosphoryl)-L-alaninate]	–	5.45	–	8.10	–	–	–	–
CCC(C)(C)COC(=O)[C@H](C)NP(=O)(OC[C@@]1(C#N)O[C@@H](c2ccc3c(N)ncnn23)[C@H](O)[C@@H]1O)Oc1ccccc1 (stereo partly drawn) [Example 254, 2,2-dimethylbutyl ((((2R,3S,4R,5S)-5-(4-aminopyrrolo[2,1-f][1,2,4]triazin-7-yl)-2-cyano-3,4-dihydroxytetrahydrofuran-2-yl)methoxy)(phenoxy)phosphoryl)-L-alaninate]	–	4.89	7.34	7.77	–	–	–	–
